Here are results for two molecules from patent US9632088B2, “Methods and compositions for gamma-secretase assay” (MEMORIAL SLOAN-KETTERING CANCER CENTER, priority 2010, dated 2017).

For orientation: IC50 means the point on the concentration scale where inhibition reaches its midpoint.

The target of one test is T1, E280A PS1 γ-secretase (Homo sapiens, UniProt P49768, E280A).
T1 construct: total membrane
Briefly: In vitro N1-Sb1 γ-secretase assay, membrane of N2a cells expressing E280A PS1. The class given is biochemical, murine. The settings on record: E280A PS1; read-out: IC50 of γ-secretase inhibition (N1-Sb1 cleavage). As for the experimental part: (§1) HeLa membrane fraction was isolated from HeLa-S3 cells (National Cell Culture Center). The cell pellet was resuspended in Buffer A (50 mM MES, 150 mM KCl, 5 mM CaCl2, 5 mM MgCl2) and lysed by passage through a French Press. N2a cells (murine neuroblastoma cells) over-expressing wild-type PS1, or mutants M146L or E280A, were obtained from Dr. Sangram Sisodia (University of Chicago, Chicago, Ill.). These cells were maintained in 50% Dulbecco's modified Eagle's medium high glucose, 50% Opti-Mem Reduced Serum Media, and 10% fetal calf serum. Cultured cells were pelleted by centrifugation and resuspended in hypotonic buffer (40 mM Tris, pH 7.4, 10 mM NaCl, 1 mM EDTA, and 0.5 mM DTT) for 20 minutes before being lysed with a dounce homogenizer. Nuclear debris from the HeLa and N2a cells were pelleted at 3000 rpm for 30 minutes. The resulting supernatants were ultracentrifuged at 100,000×g for 1 hour. The pellet that contained total cell membrane was resuspended in Buffer A. Mouse brains overexpressing knock-in wild type or M146V PS1 (gift from Dr. Hui Zheng, Amylin Pharmaceuticals, San Diego, Calif.) were homogenized with dounce homogenizer. The cell lysate was centrifuged at 3000 rpm for 30 minutes. The supernatants were ultracentrifuged at 100,000×g for 1 hour. Protein concentration was determined with the DC Protein Assay Kit according to the manufacturer's instructions (Bio-Rad, Hercules, Calif.).
An in vitro γ-secretase assay using a novel recombinant APP-derived substrate (termed “Sb4”) is disclosed in co-pending application U.S. Ser. No. 12/776,141. In the present assay based on a Notch-derived substrate, N1-Sb1 was incubated with the cell membrane fraction, prepared as described above, in the presence of 0.25% CHAPSO and 1×PIPES buffer (50 mM PIPES, pH 7.0, 150 mM KCl, 5 mM CaCl2, 5 mM MgCl2. The reaction was incubated at 37° C. for 2 hours. The Perkin Elmer AlphaScreen™ detection system was employed to assay for Notch cleavage. AlphaScreen (PerkinElmer Life and Analytical Sciences, Shelton, Conn.) is a bead based non-radioactive Amplified Luminescent Proximity Homogeneous Assay (ALPHA). When a biological interaction brings the beads together, a cascade of chemical reactions acts to produce a greatly amplified signal. Specifically, upon laser excitation, a photosensitizer in the “Donor” bead converts ambient (triplet) oxygen to the more reactive singlet state. The singlet state oxygen molecules diffuse into the solvent, and may react with a thioxene derivative in the Acceptor bead if nearby, generating chemiluminescence at 370 nm that further activates fluorophores contained in the same bead. The fluorophores subsequently emit light at 520-620 nm. In the absence of a specific biological interaction, the singlet state oxygen molecules produced by the donor bead go undetected without the close proximity of the acceptor bead. As a result no fluorescence signal at 520-620 nm is produced.
In the present system, antibody SM320, Protein A-conjugated acceptor beads, and Streptavidin-conjugated donor beads (PerkinElmer) were added to the reaction at a final concentration of 0.2 μg/ml, 2.5 μg/ml and 5 μg/ml, respectively (diagrammed in FIG. 5A). The reaction was incubated in the dark at room-temperature for 4 hours. The ALPHA signal was detected using the Envision plate reader (Perkin Elmer). The reactions were excited at 680 nm and signal was detected at 615 nm.
The effects of PS1 FAD mutations on Notch cleavage were determined using the new γ-secretase assay described in Example 2. The activities of two PS1 FAD mutations—PS1 M146L and E280A were compared against wild-type PS1 (WT), which has been previously studied (25). Total membrane was isolated from N2a cells that stably express WT, M146L, or E280A mutants. N1-Sb1 was incubated with these membranes and the resulting cN1-Sb1 was detected with SM320. […] The M146L and E280A mutants had 40% and 14% activity remaining, respectively, compared to the activity of the wild type (FIG. 7A). […]

The target in test [1] is T2, γ-secretase (HeLa membrane) (Homo sapiens, UniProt P49768).
T2 construct: host or cells: HeLa-S3 cells, total membrane fraction
Briefly: In vitro N1-Sb1 γ-secretase assay (ALPHA detection with SM320), HeLa membrane. The class given is biochemical. To be noted: 0.25% CHAPSO; for IC50: read-out: IC50 in inhibiting N1-Sb1 cleavage. How it is done:
as §1
An in vitro γ-secretase assay using a novel recombinant APP-derived substrate (termed “Sb4”) is disclosed in co-pending application U.S. Ser. No. 12/776,141. In the present assay based on a Notch-derived substrate, N1-Sb1 was incubated with the cell membrane fraction, prepared as described above, in the presence of 0.25% CHAPSO and 1×PIPES buffer (50 mM PIPES, pH 7.0, 150 mM KCl, 5 mM CaCl2, 5 mM MgCl2. The reaction was incubated at 37° C. for 2 hours. The Perkin Elmer AlphaScreen™ detection system was employed to assay for Notch cleavage. AlphaScreen (PerkinElmer Life and Analytical Sciences, Shelton, Conn.) is a bead based non-radioactive Amplified Luminescent Proximity Homogeneous Assay (ALPHA). When a biological interaction brings the beads together, a cascade of chemical reactions acts to produce a greatly amplified signal. Specifically, upon laser excitation, a photosensitizer in the “Donor” bead converts ambient (triplet) oxygen to the more reactive singlet state. […] As a result no fluorescence signal at 520-620 nm is produced.
In the present system, antibody SM320, Protein A-conjugated acceptor beads, and Streptavidin-conjugated donor beads (PerkinElmer) were added to the reaction at a final concentration of 0.2 μg/ml, 2.5 μg/ml and 5 μg/ml, respectively (diagrammed in FIG. 5A). […] The ALPHA signal was detected using the Envision plate reader (Perkin Elmer). The reactions were excited at 680 nm and signal was detected at 615 nm.
HeLa membrane was incubated with N1-Sb1 substrate in the presence of 0.25% CHAPSO. The γ-secretase cleavage product (cN1-Sb1) was detected by the PerkinElmer proximity assay (ALPHA) using the SM320 antibody, Protein A-conjugated acceptor-beads (which bind SM320) and streptavidin-conjugated donor-beads (which bind biotin) (FIG. 5A). cN1-Sb1 levels in DMSO-treated assay was 10-fold higher than in the presence of the inhibitor L-685,458 (L458; structure shown below)-treated assay. […]

For test [2], the target named is T3, WT PS1 NTF (γ-secretase active site) (Homo sapiens, UniProt P49768).
T3 construct: total membrane
Briefly: Photolabeling of PS1 NTF, N2a wild-type PS1 membrane. The class given is binding, murine. To be noted: probes 10 nM, 0.25% CHAPSO, normalized to JC8, excess L458 as competitor. As for the experimental part: (§2) Total cell membrane was pre-incubated in the presence of DMSO or 1 μM L458 in PIPES buffer containing 0.25% CHAPSO at 37° C. for 30 minutes. Then, photolabeling probes (JC8, L646 or GY4) (Li et al., 2000, Nature, 405:689-694, Chun et al., 2004, J Org. Chem., 69:7344-7347, Yang et al., 2009, Bioorg Med Chem. Lett., 19:922-925) at 10 nM were added and incubated for an additional 1 hour at 37° C. The reaction mixtures were irradiated at 350 nm for 45 minutes and solubilize with RIPA buffer. Biotinylated proteins in the soluble fraction were captured by Streptavidin resin (Pierce) overnight at 4° C. Bound proteins were eluted by boiling with SDS sample buffer and analyzed by western blotting with anti-PS1 NTF antibodies.
(§3) L646, GY4 and JC8, which photolabel the S2, S1, and S1′ subsites within the active site of PS1, respectively, were used for this study (FIG. 10b). Membranes isolated from N2a cells stably expressing wild-type (WT), M146L, or E280A PS1 were photolabeled with JC8, GY4 or L646 in the presence of 0.25% CHAPSO. […] After […] irradiation, biotinylated proteins were isolated with streptavidin beads and analyzed by western blotting with anti-PS1 NTF antibodies. […] To eliminate the effect of various amounts of γ-secretase existing in different cell lines, we normalized each probe with JC8 labeling in the same cell lines.

Test [3] addresses T4, M146L PS1 NTF (γ-secretase active site) (Homo sapiens, UniProt P49768, M146L).
T4 construct: total membrane
Briefly: Photolabeling of PS1 NTF, N2a M146L PS1 membrane. The class given is binding, murine. To be noted: probes 10 nM, 0.25% CHAPSO, normalized to JC8, excess L458 as competitor. How it is done: as §2, §3

As to `CC(NC(=O)Cc1cc(F)cc(F)c1)C(=O)NC1N=C(c2ccccc2)c2ccccc2N(C)C1=O` (stereo not shown) [Compound E], the results for the concentration for half-maximal inhibition (IC50) (at E280A PS1 γ-secretase; in test [1]) were 0.71 nM and 1 nM, respectively.

On to `CC(C)C[C@H](NC(=O)[C@H](Cc1ccccc1)C[C@@H](O)[C@H](Cc1ccccc1)NC(=O)OC(C)(C)C)C(=O)N[C@@H](Cc1ccccc1)C(N)=O` [L458], for which the IC50 at E280A PS1 γ-secretase is 0.46 nM; in test [1], 0.7 nM. Moreover, the “cN1-Sb1 levels in DMSO-treated assay versus inhibitor-treated assay” value in test [1] (fold higher in DMSO) stood at 10 fold. For the same molecule, the “Photolabeling of PS1 NTF (western blot)” value in test [2] and in test [3] was “completely prevented labeling” throughout.
